Reference: ChEMBL document CHEMBL4393688, “Synthesis, in vitro and in vivo characterization of new benzoxazole and benzothiazole-based sigma receptor ligands” (Eur J Med Chem, 2019)
The source made the active and inactive calls. The calls are words filed in the database; no cut-off is given here.

Experiments:
[1] = target: Sigma non-opioid intracellular receptor 1 (Cavia porcellus, UniProt Q60492); experiment: Displacement of [3H]-(+)-pentazocine from sigma1 receptor in guinea pig brain membranes incubated for 150 mins by scintillation counting method; assay type: cell membranes
[2] = target: Sigma intracellular receptor 2 (Homo sapiens, UniProt Q5BJF2); experiment: Displacement of [3H]-DTG from sigma2 receptor (unknown origin) incubated for 120 mins by scintillation counting method
[3] = Selectivity ratio of Ki for sigma2 receptor (unknown origin) to Ki for sigma1 receptor in guinea pig brain cortex membranes; assay type: cell membranes
MCF7 [4] = experiment: Induction of apoptosis in human MCF7 cells assessed as increase in caspase-3 activity at 20 uM incubated for 24 hrs by Ac-DEVD-pNA substrate-based colorimetric assay; assay type: functional, cell-based
MCF7 [5] = experiment: Cytotoxicity against human MCF7 cells assessed as reduction in cell viability incubated for 24 hrs by MTT assay; assay type: functional, cell-based; conditions: MCF7, 24 h
Mus musculus [6] = experiment: Analgesic activity in formalin-induced nociception mouse model assessed as decrease in time spent on licking or flinching formalin injected right hind paw during early nociceptive phase at 2.5 to 5 mg/kg, ip administered 15 mins prior to formalin challenge measured at 5 mins interval for 10 mins; assay type: functional, organism-based
Mus musculus [7] = experiment: Analgesic activity in formalin-induced nociception mouse model assessed as decrease in time spent on licking or flinching formalin injected right hind paw during inflammatory phase at 2.5 to 5 mg/kg, ip administered 15 mins prior to formalin challenge measured at 5 mins interval for 10 to 60 mins; assay type: functional, organism-based

Sequence of Sigma intracellular receptor 2 (Q5BJF2 whole entry): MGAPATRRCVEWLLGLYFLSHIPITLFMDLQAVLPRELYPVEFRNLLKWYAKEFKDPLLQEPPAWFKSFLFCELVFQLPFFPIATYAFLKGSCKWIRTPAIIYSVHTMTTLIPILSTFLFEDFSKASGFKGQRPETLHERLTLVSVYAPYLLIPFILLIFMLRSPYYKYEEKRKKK
Sequence of Sigma non-opioid intracellular receptor 1 (Q60492 whole entry): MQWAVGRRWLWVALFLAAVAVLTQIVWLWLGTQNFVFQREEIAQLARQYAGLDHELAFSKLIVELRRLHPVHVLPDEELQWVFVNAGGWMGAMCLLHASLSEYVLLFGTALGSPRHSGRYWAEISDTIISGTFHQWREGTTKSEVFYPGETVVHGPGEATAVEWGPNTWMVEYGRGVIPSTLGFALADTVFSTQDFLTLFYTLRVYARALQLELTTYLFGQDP

Compound	Ki [1]	Ki [2]	Ratio Ki [3]	Activity (MCF7 [4])	IC50 (MCF7 [5])	Activity (Mus musculus [6])	Activity (Mus musculus [7])
Clc1ccc2oc(SCCCCN3CCCCCC3)nc2c1	2.4 nM	11 nM	4.6				
CC[C@H]1C[C@@H]2C[C@H]3c4[nH]c5ccc(OC)cc5c4CC[N@@](C2)[C@@H]13				Active	29.6 µM		
O=c1sc2ccc(Cl)cc2n1CCCN1CCCCCC1	7.4 nM	68.8 nM	9.3				
O=c1oc2ccc(Cl)cc2n1CCCCN1CCCCCC1	2.3 nM	3.8 nM	1.6	Active	44.8 µM	Active	Active
Clc1ccc2oc(SCCN3CCCCCC3)nc2c1	1.93 nM	87 nM	45				
O=C(CCCN1CCC(O)(c2ccc(Cl)cc2)CC1)c1ccc(F)cc1 [HALOPERIDOL]				Active	20.2 µM		
O=c1sc2ccc(Cl)cc2n1CCN1CCCCCC1	180 nM	1670 nM	9.3				
Clc1ccc2sc(SCCCN3CCCCCC3)nc2c1	1.27 nM	7.9 nM	6.8	Active	20.5 µM	inactive	inactive
O=c1sc2ccc(Cl)cc2n1CCCCN1CCCCCC1	0.78 nM	7.61 nM	9.7	Active	27.8 µM	inactive	Active
Clc1ccc2sc(SCCN3CCCCCC3)nc2c1	407 nM	> 1000 nM	> 2.4				
O=c1oc2ccc(Cl)cc2n1CCN1CCCCCC1	99 nM	652 nM	6.6				
Clc1ccc2oc(SCCCN3CCCCCC3)nc2c1	2.35 nM	16 nM	6.2				
O=c1oc2ccc(Cl)cc2n1CCCN1CCCCCC1	6.3 nM	64.1 nM	10.2				
Clc1ccc2sc(SCCCCN3CCCCCC3)nc2c1	8.44 nM	21.8 nM	2.6				
